Legend:
[1] = tested on: lung A-549 cancer cell line; experiment: In vitro cytotoxic activity (MTT assay), A-549
Procedure: Exponentially, cells were placed in 10^4 cells/ well for 24 h, and then add fresh medium which containing different concentration of the tested sample. Serial two-fold dilution of the tested sample were added using a multichannel pipette. […] Rinse the wells using water until no stain. After that, add 30% glacial acetic acid to all wells with shaking plates on Microplate reader (TECAN, Inc.) to measure the absorbance, using a test wavelength of 490 nm. Besides, compare the treated samples with the control cell.

[2] = tested on: liver HepG-2 cancer cell line; experiment: In vitro cytotoxic activity (MTT assay), HepG-2
Text: (§1) The supplemental file contained extra details.

hCA XII = target: T1, hCA XII (Homo sapiens, UniProt O43570); experiment: Carbonic anhydrase inhibition, stopped-flow CO2 hydration, hCA XII; type: biochemical; conditions: read-out: IC50 (mean ± SD) Carbonic anhydrase isoforms hCA XII
T1 construct: made in house
T1 sequence (O43570 25-354): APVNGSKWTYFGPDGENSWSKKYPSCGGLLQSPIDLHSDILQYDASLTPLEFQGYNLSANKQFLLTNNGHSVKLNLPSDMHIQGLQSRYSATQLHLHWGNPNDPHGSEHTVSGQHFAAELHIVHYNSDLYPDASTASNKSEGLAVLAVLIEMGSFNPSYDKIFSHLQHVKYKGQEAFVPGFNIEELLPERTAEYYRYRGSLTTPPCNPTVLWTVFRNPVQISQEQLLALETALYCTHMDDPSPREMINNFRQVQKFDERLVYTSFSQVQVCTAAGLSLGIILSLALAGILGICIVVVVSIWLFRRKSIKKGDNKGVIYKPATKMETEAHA
Procedure: (§2) There was further information in the supplemental file.
(§3) An applied photophysics stopped-flow instrument was used for assaying the CA-catalyzed CO2 hydration activity. […] The CO2 concentrations ranged from 1.7 to 17 mM for the determination of the kinetic parameters and inhibition constants. For each inhibitor, at least six traces of the initial 5–10% of the reaction were used for determining the initial rate. The uncatalyzed rates were determined in the same manner and subtracted from the total observed rates. Stock solutions of inhibitor (0.1 mM) were prepared in distilled-deionized water, and dilutions up to 0.01 nM were done thereafter with distilled-deionized water. Inhibitor and enzyme solutions were preincubated together for 15 min at room temperature before assay in order to allow for the formation of the E-I complex. The inhibition constants were obtained by nonlinear least-squares methods using PRISM 3, and the Cheng –Prusoff equation, and represent the mean from at least three different determinations. All CA isoforms were recombinant ones obtained in-house.

VEGFR-2 = VEGFR-2 (Homo sapiens, UniProt P35968); experiment: In vitro inhibitory assessment against VEGFR-2 (ELISA, MCF-7 cell homogenates); type: cell-based; conditions: read-out: IC50 (mean ± SD) VEGFR-2
Chain of VEGFR-2 (P35968 20-1356): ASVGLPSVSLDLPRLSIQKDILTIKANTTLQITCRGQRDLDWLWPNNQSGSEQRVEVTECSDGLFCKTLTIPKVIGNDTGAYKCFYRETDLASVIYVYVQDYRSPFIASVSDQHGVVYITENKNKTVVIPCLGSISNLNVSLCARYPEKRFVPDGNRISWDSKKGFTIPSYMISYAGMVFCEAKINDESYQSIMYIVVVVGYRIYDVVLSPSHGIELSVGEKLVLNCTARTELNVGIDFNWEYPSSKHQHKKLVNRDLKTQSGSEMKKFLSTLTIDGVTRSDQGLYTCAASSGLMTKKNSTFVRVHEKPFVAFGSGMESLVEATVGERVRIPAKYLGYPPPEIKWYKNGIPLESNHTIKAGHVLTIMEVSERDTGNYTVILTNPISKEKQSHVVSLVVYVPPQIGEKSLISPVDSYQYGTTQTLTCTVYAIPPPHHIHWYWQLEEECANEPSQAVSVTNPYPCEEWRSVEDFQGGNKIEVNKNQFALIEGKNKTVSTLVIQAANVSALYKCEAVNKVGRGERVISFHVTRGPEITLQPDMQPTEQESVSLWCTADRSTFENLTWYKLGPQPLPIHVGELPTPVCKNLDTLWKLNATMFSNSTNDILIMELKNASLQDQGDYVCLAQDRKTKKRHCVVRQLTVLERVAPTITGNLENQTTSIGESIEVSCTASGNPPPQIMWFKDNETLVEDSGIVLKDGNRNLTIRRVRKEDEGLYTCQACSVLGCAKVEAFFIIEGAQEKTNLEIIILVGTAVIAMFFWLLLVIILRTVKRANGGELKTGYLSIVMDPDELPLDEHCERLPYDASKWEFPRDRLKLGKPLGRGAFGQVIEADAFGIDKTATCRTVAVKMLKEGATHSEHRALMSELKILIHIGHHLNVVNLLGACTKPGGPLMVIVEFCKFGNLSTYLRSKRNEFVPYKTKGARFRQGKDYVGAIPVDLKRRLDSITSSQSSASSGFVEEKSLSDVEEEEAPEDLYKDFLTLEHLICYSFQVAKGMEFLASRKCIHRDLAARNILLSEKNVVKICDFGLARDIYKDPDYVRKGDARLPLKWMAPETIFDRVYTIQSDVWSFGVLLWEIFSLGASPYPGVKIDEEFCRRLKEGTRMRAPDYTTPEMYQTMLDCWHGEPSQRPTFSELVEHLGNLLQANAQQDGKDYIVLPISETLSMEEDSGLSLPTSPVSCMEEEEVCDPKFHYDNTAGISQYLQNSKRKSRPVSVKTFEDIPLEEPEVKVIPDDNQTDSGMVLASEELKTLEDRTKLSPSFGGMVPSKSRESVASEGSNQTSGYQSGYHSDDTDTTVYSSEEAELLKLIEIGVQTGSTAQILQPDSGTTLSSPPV
Procedure: as §2
The cells were harvested and the homogenates were prepared in saline using a tight pestle homogenizer until complete cell disruption. The kit uses a double-antibody sandwich enzyme-linked immunosorbent assay (ELISA) to determine the level of human VEGFR-2 in samples. A monoclonal antibody for VEGFR-2 was pre-coated onto 96-well plates. The test samples are added to the wells and a biotinylated detection polyclonal antibody from goat specific for VEGFR-2 was added subsequently followed by washing with PBS buffer. Avidin-Biotin-Peroxidase complex was added and the unbound conjugates were washed away with PBS buffer. HRP substrate TMB was used to visualize HRP enzymatic reaction. TMB was catalyzed by HRP to produce a blue color product that changed into yellow after adding acidic stop solution. The density of yellow color is proportional to the human VEGFR-2 amount of the sample captured in the plate. The chroma of color and the concentration of the human VEGFR-2 of the samples were positively correlated and the optical density was determined at 450 nm. The level of human VEGFR-2 in samples was calculated (pg/ml) as duplicate determinations from the standard curve. Percent inhibition was calculated in comparison to control untreated cells.

[3] = tested on: retinal pigment epithelial normal RPE-1 cell line; experiment: Cytotoxic activity (MTT assay) against normal cell line RPE-1; type: cell-based; conditions: Homo sapiens, normal RPE-1 cells, read-out: IC50 (mean ± SD) RPE-1
Text: Furthermore, the MTT assay was utilized to estimate the cytotoxic activity of the extremely potent derivatives 4, 7 and 9 against the normal cell line RPE-1, with the aim of examining their safety profiles (Table 1). […] They could therefore be thought of as safe cytotoxic agents.
as §1

[4] = tested on: breast MCF-7 cancer cell line; experiment: In vitro cytotoxic activity (MTT assay), MCF-7; type: cell-based, human
Text: as §1

hCA IX = target: T2, hCA IX (Homo sapiens, UniProt Q16790); experiment: Carbonic anhydrase inhibition, stopped-flow CO2 hydration, hCA IX; type: biochemical; conditions: read-out: IC50 (mean ± SD) Carbonic anhydrase isoforms hCA IX
T2 construct: made in house
Procedure: as §2, §3

[5] = tested on: colorectal HCT-116 cancer cell line; experiment: In vitro cytotoxic activity (MTT assay), HCT-116; type: cell-based, human
Text: as §1

With `[N-]=[N+]=Nc1ccc(S(=O)(=O)NC2CCCCC2)cc1` [Compound 4, 4-Azido-N-cyclohexylbenzenesulfonamide] the “percentage cytotoxicity on A-549” value ([1]; 12.5 µM) was 21.37±1.55%, the “percentage cytotoxicity on A-549” value ([1]; 25 µM) was 34.87±0.75% and the “percentage cytotoxicity on A-549” value ([1]; 50 µM) was 70.87±1.63%. For the same compound, the “percentage cytotoxicity on A-549” value ([1]; 100 µM) was 97.43±0.67%, the inhibition at 100 µM ([1]; Homo sapiens, A549, 48 h, read-out: % inhibition ± SD A-549) was 97.43 ± 0.67% and the IC50 ([1]; Homo sapiens, A549, read-out: IC50 (mean ± SD) A-549) was 30.9 ± 0.65 µM. For the same compound, the melting point was 65 to 67 °C, the “percentage cytotoxicity on HepG-2” value ([2]; 12.5 µM) was 85.13±1.65% and the “percentage cytotoxicity on HepG-2” value ([2]; 25 µM) was 86.23±0.98%. The “percentage cytotoxicity on HepG-2” value ([2]; 50 µM) was 85.67±2.50%, the “percentage cytotoxicity on HepG-2” value ([2]; 100 µM) was 87.30±0.91% and the IC50 ([2]; Homo sapiens, HepG2, read-out: IC50 (mean ± SD) HepG-2) was 12.5 ± 0.51 µM. For the same compound, the IC50 (hCA XII) was 0.0359 µM, the IC50 (VEGFR-2) was 181 ± 0.66 µM and the IC50 [3] was 78.3 ± 1.56 µM. The “percentage cytotoxicity on MCF-7” value ([4]; 12.5 µM) was 35.03±2.83%, the “percentage cytotoxicity on MCF-7” value ([4]; 25 µM) was 58.31±3.30% and the “percentage cytotoxicity on MCF-7” value ([4]; 50 µM) was 78.50±0.37%. For the same compound, the “percentage cytotoxicity on MCF-7” value ([4]; 100 µM) was 91.20±0.09%, the inhibition at 100 µM ([4]; Homo sapiens, MCF7, 100 µM, 48 h, read-out: % inhibition ± SD MCF-7) was 91.2 ± 0.09% and the IC50 ([4]; Homo sapiens, MCF7, MCF-7 cells, MTT, read-out: IC50 (mean ± SD) MCF-7) was 19.6 ± 1.1 µM. For the same compound, the IC50 (hCA IX) was 0.142 µM, the “percentage cytotoxicity on HCT-116” value ([5]; 12.5 µM) was 34.64±0.48% and the “percentage cytotoxicity on HCT-116” value ([5]; 25 µM) was 51.93±0.58%. The “percentage cytotoxicity on HCT-116” value ([5]; 50 µM) was 86.90±0.28%, the “percentage cytotoxicity on HCT-116” value ([5]; 100 µM) was 94.83±0.87% and the inhibition at 100 µM ([5]; Homo sapiens, HCT-116, 100 µM, 48 h, read-out: % inhibition ± SD HCT-116) was 94.83 ± 0.87%. For the same compound, the IC50 ([5]; Homo sapiens, HCT-116 cells, MTT, read-out: IC50 (mean ± SD) HCT-116) was 20.3 ± 0.33 µM.

— paper PMC11156913, “New sulfonamide-based glycosides incorporated 1,2,3-triazole as cytotoxic agents through VEGFR-2 and carbonic anhydrase inhibitory activity” (Scientific Reports, 2024)
